Counter-ions that a name gives are not always drawn. Like-named read-outs stand apart in the source and are kept apart here.
Key:
[1] = tested on: IL-2 release from stimulated Jurkat cells; assay: Human IL-2 Release Phenotypic Assay (Assay 3); type: cell-based; conditions: Jurkat cells (clone E6-1), 200 ng/mL PMA + 300 ng/mL ionomycin, IL-2 by ELISA
In short: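 Jurkat E6-1 cells in RPMI1640/10% FBS were seeded at 50 000 cells/well and incubated overnight at 37° C. Half-log compound dilutions (0.5% final DMSO) were added for 30 min, then cells were stimulated with 200 ng/mL PMA + 300 ng/mL ionomycin for 48 h. IC50 came from a 4-parameter non-linear regression fit.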

[2] = target: T1, MALT1-GS-Ub (6-His-hMALT-1 residues 339-715 fused to ubiquitin) (Homo sapiens, UniProt Q9UDY8);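 also: in vitro MALT1 protease assay: enzyme preincubated with compound 30 min at room temperature, then cleavage of fluorogenic Ac-LVSR-AMC substrate (100 µM) followed by fluorescence every 15 min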
Procedure: (§1) MALT1 protease activity was assessed in vitro by measuring the cleavage of a fluorogenic tetrapeptide substrate.
(§2) A protein (MALT1-GS-Ub) comprising 6-His-hMALT-1 (residues 339-715), fused to ubiquitin with an 8×GGS linker, was expressed in E. coli, and purified using chitin resin to remove contaminants followed by affinity chromatography purification and size-exclusion chromatography, according to standard protocols.
(§3) Briefly, MALT1-GS-Ub (300-600 nM) was incubated with substrate (Ac-LVSR-AMC, 100 μM) in reaction buffer comprising 50 mM HEPES (pH7.0), 25 mM KCl, 0.1% (v/v) CHAPS and 1 mM TCEP.
(§4) Test compounds dissolved in DMSO were dispensed into assay plates (384-well, black, shallow ProxiPlates). 7 μl enzyme solution was added and incubated at room temperature for 30 minutes to allow compound binding to occur. 2 μl substrate solution was then added and the fluorescence (excitation 360 nm, emission 460 nm) read every 15 minutes using a suitable plate reader. Final assay DMSO concentration was 1%. […] IC50 values were calculated using GraphPad Prism using a 4-parameter non-linear regression curve fit.

FL hMALT1 enzyme = target: T2, FL hMALT1 enzyme (Homo sapiens, UniProt Q9UDY8); assay: biochemical;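 also: Cell-free protease assay: enzyme preincubated with compound 30 min at room temperature, then cleavage of fluorogenic Ac-LVSR-AMC substrate (100 µM) tracked by fluorescence (ex 360/em 460 nm)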
T2 sequence (Q9UDY8 1-824): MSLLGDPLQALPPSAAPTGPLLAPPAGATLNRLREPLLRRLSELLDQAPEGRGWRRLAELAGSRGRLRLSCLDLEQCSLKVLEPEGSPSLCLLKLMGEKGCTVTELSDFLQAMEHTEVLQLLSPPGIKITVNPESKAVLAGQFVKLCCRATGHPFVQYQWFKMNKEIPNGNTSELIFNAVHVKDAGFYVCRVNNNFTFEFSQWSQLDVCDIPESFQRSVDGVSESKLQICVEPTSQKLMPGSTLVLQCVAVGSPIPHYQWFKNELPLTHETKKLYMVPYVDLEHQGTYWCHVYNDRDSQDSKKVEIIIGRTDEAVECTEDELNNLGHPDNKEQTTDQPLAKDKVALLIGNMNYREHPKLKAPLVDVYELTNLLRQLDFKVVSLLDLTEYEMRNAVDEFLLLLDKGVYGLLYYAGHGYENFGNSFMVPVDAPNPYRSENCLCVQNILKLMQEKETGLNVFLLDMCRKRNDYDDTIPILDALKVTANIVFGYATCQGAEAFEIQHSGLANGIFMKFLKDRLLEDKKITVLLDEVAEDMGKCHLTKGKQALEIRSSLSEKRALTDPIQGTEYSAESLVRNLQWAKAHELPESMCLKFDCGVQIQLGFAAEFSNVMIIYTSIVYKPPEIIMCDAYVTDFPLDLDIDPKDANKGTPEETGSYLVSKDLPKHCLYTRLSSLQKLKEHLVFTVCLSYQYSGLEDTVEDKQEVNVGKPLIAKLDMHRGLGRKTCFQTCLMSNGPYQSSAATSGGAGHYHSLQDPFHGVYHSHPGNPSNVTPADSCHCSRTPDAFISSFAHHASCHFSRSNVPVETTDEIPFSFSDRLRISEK
Procedure: as §1
For a higher sensitivity assay, commercially available FL hMALT1 enzyme (Abcam, 1-10 nM) was incubated with substrate (Ac-LVSR-AMC, 100 μM) in reaction buffer comprising 50 mM HEPES (pH7.0), 25 mM KCl, 0.1% (v/v) CHAPS, 1 mM TCEP and 0.7 M sodium citrate.
as §4

[3] = target: T1, MALT1-GS-Ub (6-His-hMALT-1 residues 339-715 fused to ubiquitin); assay: biochemical
Procedure: as §1, §2, §3, §4

T1 sequence (Q9UDY8 with tags, fused parts or gaps limits assumed): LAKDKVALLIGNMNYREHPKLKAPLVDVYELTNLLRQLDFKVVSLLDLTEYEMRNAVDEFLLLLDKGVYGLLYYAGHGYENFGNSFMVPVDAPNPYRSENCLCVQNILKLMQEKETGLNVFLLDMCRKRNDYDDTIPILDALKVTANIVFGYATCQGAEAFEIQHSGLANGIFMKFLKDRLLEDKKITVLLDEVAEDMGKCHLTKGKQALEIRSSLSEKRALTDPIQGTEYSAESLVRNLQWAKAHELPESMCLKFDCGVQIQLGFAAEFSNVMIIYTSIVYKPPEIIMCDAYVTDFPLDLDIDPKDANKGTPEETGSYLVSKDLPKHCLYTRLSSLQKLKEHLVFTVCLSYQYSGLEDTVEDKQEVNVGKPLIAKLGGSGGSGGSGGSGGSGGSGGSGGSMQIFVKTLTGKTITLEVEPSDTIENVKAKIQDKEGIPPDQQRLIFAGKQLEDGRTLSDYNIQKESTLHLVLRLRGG

Structure (SMILES) | IC50 ([1]; 48 hours) [nM] | IC50 [2] [nM] | IC50 (FL hMALT1 enzyme) [nM] | IC50 [3] [nM] | IC50 ([1]; Homo sapiens, Jurkat, 48 h) [nM]
CN(C(=O)C1CCS(=O)(=O)CC1)[C@@H](c1ccc(NC2Cc3ccccc3C2(C)C)cc1)C(F)(F)F (single isomer, unassigned) [Example 2] | 620 | 140 | 50 | – | –
CN1CC(C(=O)N(C)[C@@H](c2ccc(NC3Cc4ccccc4C3(C)C)cc2)C(F)(F)F)C1 (single isomer, unassigned) [Example 76] | 500 | – | 36 | 220 | –
CN([C@@H](c1ccc(NC2Cc3ccccc3C2(C)C)cc1)C(F)(F)F)S(=O)(=O)C1CC1 (single isomer, unassigned) [Example 79] | – | – | 730 | 610 | 4310
CN([C@@H](c1ccc(NC2Cc3ccccc3C2(C)C)cc1)C(F)(F)F)S(=O)(=O)C1CC1 (single isomer, unassigned) [Example 80] | 2240 | – | 210 | 270 | –
CC1(C)c2ccccc2CC1Nc1ccc([C@H](NC(=O)C2CCS(=O)(=O)CC2)C(F)(F)F)cc1 (single isomer, unassigned) [Example 81] | – | – | 800 | 1440 | 3860
CC1(C)c2ccccc2CC1Nc1ccc([C@H](NC(=O)C2CCS(=O)(=O)CC2)C(F)(F)F)cc1 (single isomer, unassigned) [Example 82] | 2990 | – | 460 | 470 | –
CN1CC(C(=O)N(C)C(c2ccc(NC3Cc4ccccc4C3(C)C)nc2)C(F)(F)F)C1 (single isomer, unassigned) [Example 93, N-(1-(6-((1,1-Dimethyl-2,3-dihydro-1H-inden-2-yl)amino)pyridin-3-yl)-2,2,2-trifluoroethyl)-N,1-dimethylazetidine-3-carboxamide] | 3040 | – | 690 | 1000 | –
CN1CC(C(=O)N(C)C(c2ccc(NC3Cc4ccccc4C3(C)C)nc2)C(F)(F)F)C1 (single isomer, unassigned) [Example 95, N-(1-(6-((1,1-Dimethyl-2,3-dihydro-1H-inden-2-yl)amino)pyridin-3-yl)-2,2,2-trifluoroethyl)-N,1-dimethylazetidine-3-carboxamide] | 1300 | – | 640 | 580 | –
CN(C(=O)C1CCS(=O)(=O)CC1)[C@@H](c1ccc(NC2Cc3ccc(Cl)cc3C2(C)C)cc1)C(F)(F)F (single isomer, unassigned) [Example 150] | – | – | 66 | 150 | 100
CN(C(=O)C1CCS(=O)(=O)CC1)[C@@H](c1ccc(NC2Cc3ccc(Cl)cc3C2(C)C)cc1)C(F)(F)F (single isomer, unassigned) [Example 151] | 97 | – | 4 | 120 | –
CN(C(=O)C1CCS(=O)(=O)CC1)[C@@H](c1ccc(NC2Cc3cc(Cl)ccc3C2(C)C)cc1)C(F)(F)F (single isomer, unassigned) [Example 152] | 360 | – | 420 | 260 | –
CN(C(=O)C1CCS(=O)(=O)CC1)[C@@H](c1ccc(NC2Cc3cc(Cl)ccc3C2(C)C)cc1)C(F)(F)F (single isomer, unassigned) [Example 153] | 120 | – | 67 | 190 | –
CC1c2ccccc2C(C)C1Nc1ccc([C@H](N(C)C(=O)C2CCS(=O)(=O)CC2)C(F)(F)F)cc1 (stereo partly drawn) [Example 38, N-((1S)-1-(4-((1,3-Dimethyl-2,3-dihydro-1H-inden-2-yl)amino)phenyl)-2,2,2-trifluoroethyl)-N-methyltetrahydro-2H-thiopyran-4-carboxamide 1,1-dioxide] | – | – | 16 | 210 | 560

The next lines start with the values.

IC50 ([1]; 48 hours) [nM] | IC50 [2] [nM] | IC50 (FL hMALT1 enzyme) [nM] | IC50 [3] [nM] | IC50 ([1]; Homo sapiens, Jurkat, 48 h) [nM] | Structure (SMILES)
69 | 140 | 34 | – | – | CN(C(=O)c1cnco1)[C@@H](c1ccc(NC2Cc3ccccc3C2(C)C)cc1)C(F)(F)F (single isomer, unassigned) [Example 4]
61 | 160 | 27 | – | – | CC(=O)NCCC(=O)N(C)[C@@H](c1ccc(NC2Cc3ccccc3C2(C)C)cc1)C(F)(F)F (single isomer, unassigned) [Example 25]
920 | – | 68 | 310 | – | CN(C(=O)C1CCS(=O)(=O)CC1)[C@@H](c1ccc(NC2Cc3ccccc3C2(C)C)cn1)C(F)(F)F (single isomer, unassigned) [Example 77]
156 | – | 18 | 280 | – | CN(C(=O)C1CCS(=O)(=O)CC1)[C@@H](c1ccc(NC2Cc3ccccc3C2(C)C)cn1)C(F)(F)F (single isomer, unassigned) [Example 78]
640 | – | 180 | 320 | – | CN(C(=O)C1CNC1)C(c1ccc(NC2Cc3ccccc3C2(C)C)cn1)C(F)(F)F (single isomer, unassigned) [Example 84, N-(1-(5-((1,1-Dimethyl-2,3-dihydro-1H-inden-2-yl)amino)pyridin-2-yl)-2,2,2-trifluoroethyl)-N-methylazetidine-3-carboxamide]
1940 | – | 620 | 610 | – | CN(C(=O)C1CNC1)C(c1ccc(NC2Cc3ccccc3C2(C)C)cn1)C(F)(F)F (single isomer, unassigned) [Example 85, N-(1-(5-((1,1-Dimethyl-2,3-dihydro-1H-inden-2-yl)amino)pyridin-2-yl)-2,2,2-trifluoroethyl)-N-methylazetidine-3-carboxamide]
– | – | 470 | 1220 | 1130 | CN(C(=O)C1CNC1)C(c1ccc(NC2Cc3ccccc3C2(C)C)nc1)C(F)(F)F (single isomer, unassigned) [Example 87, N-(1-(6-((1,1-Dimethyl-2,3-dihydro-1H-inden-2-yl)amino)pyridin-3-yl)-2,2,2-trifluoroethyl)-N-methylazetidine-3-carboxamide]
1710 | – | 370 | 650 | – | CN(C(=O)C1CNC1)C(c1ccc(NC2Cc3ccccc3C2(C)C)nc1)C(F)(F)F (single isomer, unassigned) [Example 88, N-(1-(6-((1,1-Dimethyl-2,3-dihydro-1H-inden-2-yl)amino)pyridin-3-yl)-2,2,2-trifluoroethyl)-N-methylazetidine-3-carboxamide]
– | – | 280 | 500 | 870 | CN1CC(C(=O)N(C)C(c2ccc(NC3Cc4ccccc4C3(C)C)cn2)C(F)(F)F)C1 (single isomer, unassigned) [Example 92, N-(1-(5-((1,1-Dimethyl-2,3-dihydro-1H-inden-2-yl)amino)pyridin-2-yl)-2,2,2-trifluoroethyl)-N,1-dimethylazetidine-3-carboxamide]
– | – | 130 | 140 | 1560 | CN(C(=O)c1cc[nH]c(=O)c1)C(c1ccc(NC2Cc3ccccc3C2(C)C)cn1)C(F)(F)F (single isomer, unassigned) [Example 96, N-(1-(5-((1,1-Dimethyl-2,3-dihydro-1H-inden-2-yl)amino)pyridin-2-yl)-2,2,2-trifluoroethyl)-N-methyl-2-oxo-1,2-dihydropyridine-4-carboxamide]
880 | – | 590 | 210 | – | CN(C(=O)c1cc[nH]c(=O)c1)C(c1ccc(NC2Cc3ccccc3C2(C)C)cn1)C(F)(F)F (single isomer, unassigned) [Example 98, N-(1-(5-((1,1-Dimethyl-2,3-dihydro-1H-inden-2-yl)amino)pyridin-2-yl)-2,2,2-trifluoroethyl)-N-methyl-2-oxo-1,2-dihydropyridine-4-carboxamide]
– | – | 53 | 210 | 1100 | CN(C(=O)OC1CNC1)[C@@H](c1ccc(NC2Cc3ccccc3C2(C)C)cc1)C(F)(F)F (stereo partly drawn) [Example 60, Azetidin-3-yl ((1S)-1-(4-((1,1-dimethyl-2,3-dihydro-1H-inden-2-ylamino)phenyl)-2,2,2-trifluoroethyl)(methyl)carbamate Hydrochloride]
– | – | 220 | 270 | 520 | CN(C(=O)C1CNC1)[C@@H](c1ccc(NC2Cc3ccccc3C2(C)C)cc1)C(F)(F)F (stereo partly drawn) [Example 72, N-((1S)-1-(4-((1,1-Dimethyl-2,3-dihydro-1H-inden-2-yl)amino)phenyl)-2,2,2-trifluoroethyl)-N-methylazetidine-3-carboxamide Hydrochloride]

Source: patent US20260184687A1, “DIHYDROINDENE DERIVATIVES AS MALT1 INHIBITORS” (C4X Discovery Limited, priority 2022, published 2026)
